Results on twelve molecules are retold here after ChEMBL document CHEMBL1201862, “PubChem BioAssay data set” (2004).

What all share (assay): DTP human tumour cell line panel, 48 h
Test [1] relates to ACHN.
Test [2] concerns CAKI-1.
Test [3] has as its system EKVX.
Test [4] concerns HOP-62.
For test [5], the system named is HOP-92.
The subject of test [6] is KM12.
In test [7] the test system is Malme-3M.
Test [8] deals with NCI-H23.
For test [9], the system named is NCI-H460.
The test system of test [10] is OVCAR-3.
For test [11], the system named is RPMI-8226.
The subject of test [12] is SF-268.
Test [13] deals with SK-MEL-2.
Test [14] deals with SK-OV-3.
Test [15] concerns SN12C.
The test system of test [16] is TK-10.
Test [17] concerns UACC-257.
Test [18] concerns UO-31.
In test [19] the test system is MOLT-4.

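48-hour exposure; five concentrations; linearly interpolated endpoints. GI50 marks 50% less growth.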 Active and inactive are the calls of the source. Cut-off read from the data, not from the text of the source: active = GI50 up to about 1.1 µM and inactive = higher.

One may read the GI50 as the concentration giving 50% growth inhibition. On to `CC(C)C(=O)Cc1ccc2ccccc2n1`, for which the GI50 in [1] was > 100 µM (inactive); in [2], > 100 µM (inactive); in test [3], 83.4 µM (inactive); in [4], > 100 µM (inactive); in [5], > 100 µM (inactive); in test [6] it was > 100 µM (inactive). Further, the GI50 in test [7] was > 100 µM (inactive); in [8], > 100 µM (inactive); in [9], > 100 µM (inactive); in test [10] it was > 100 µM (inactive); in test [11], 0.097 µM (active); in test [12], > 100 µM (inactive). The GI50 in test [13], in test [14], in test [15], in [16], in test [17] and in test [18] was > 100 µM (inactive) each time.

With `COc1ccc2c(c1)OC(c1ccccc1O)CC2=O` (configuration not stated), the GI50 in test [1] is 46.2 µM (inactive); in test [2], 51.5 µM (inactive); in test [3], 96.8 µM (inactive); in [4], 41.4 µM (inactive); in test [6], 27.5 µM (inactive); in test [19], 26.1 µM (inactive). For the same molecule, the GI50 was 47.3 µM (inactive) in [7]; 28.7 µM (inactive) in test [8]; 50.1 µM (inactive) in [9]; 28.1 µM (inactive) in test [10]; 23.9 µM (inactive) in test [11]; 29.2 µM (inactive) in [12]. Besides, the GI50 in test [13] is 26.6 µM (inactive); in [15], 41.5 µM (inactive); in [16], > 100 µM (inactive); in [17], 39.5 µM (inactive); in [18] it was 18.1 µM (inactive).

With `C=CCCON(C(=O)OC(C)(C)C)c1ccccc1`, the GI50 in test [1], in [2], in test [3], in test [4], in test [5] and in test [6] was > 100 µM (inactive) in each case. Besides, the GI50 in test [19] was 42.6 µM (inactive); in test [7] it was 20 µM (inactive); in [8], > 100 µM (inactive); in test [9], > 100 µM (inactive); in test [10], > 100 µM (inactive); in test [11], 6.44 µM (inactive). Besides, the GI50 in test [12], in test [13], in test [14], in [15], in test [16] and in test [17] was > 100 µM (inactive) each time. The GI50 in test [18] was > 100 µM (inactive).

As for `NCC(Cl)C(O)c1c[nH]c(N)n1` (configuration not stated), the GI50 is 0.269 µM (active) in test [2]; 0.502 µM (active) in test [3]; 0.371 µM (active) in [4]; 5.46 µM (inactive) in test [5]; 0.117 µM (active) in test [6]; 0.53 µM (active) in test [19]. Besides, the GI50 in test [7] is 1.43 µM (inactive); in test [8] it was 1.49 µM (inactive); in test [9], 2.14 µM (inactive); in test [10], 2.03 µM (inactive); in [11], 0.237 µM (active); in test [12], 1.38 µM (inactive). Also, the GI50 in [13] is 3.56 µM (inactive); in test [14], 0.533 µM (active); in test [15] it was 2.12 µM (inactive); in test [17], 3.05 µM (inactive); in [18], 0.822 µM (active).

As to `O=C(NC(Cc1ccc(Cl)cc1)C(=O)O)c1ccc(I)cc1` (configuration not stated), the GI50 in test [2] was > 100 µM (inactive); in test [4], > 100 µM (inactive); in [5], > 83.4 µM (inactive); in test [6], > 100 µM (inactive); in test [19], > 75.9 µM (inactive); in test [7], > 100 µM (inactive). Moreover, the GI50 was > 100 µM (inactive) in [8]; > 100 µM (inactive) in [9]; 76.7 µM (inactive) in test [10]; 84.7 µM (inactive) in test [11]; > 100 µM (inactive) in test [12]; > 100 µM (inactive) in test [13]. For the same molecule, the GI50 in test [14], in test [15], in test [17] and in test [18] was > 100 µM (inactive) throughout.

For the molecule `CC(C)CCNc1ncnc2[nH]ncc12`, the GI50 in test [1] is 68.9 µM (inactive); in [2] it was 98.6 µM (inactive); in test [3], 26.4 µM (inactive); in test [4], 96.6 µM (inactive); in [5] it was 34.2 µM (inactive); in test [6] it was 48.6 µM (inactive). Besides, the GI50 is 65.6 µM (inactive) in [19]; > 100 µM (inactive) in test [7]; > 100 µM (inactive) in test [8]; > 100 µM (inactive) in test [9]; > 100 µM (inactive) in test [10]; 34 µM (inactive) in test [11]. The GI50 in test [12] is > 100 µM (inactive); in [13], > 100 µM (inactive); in test [14], > 100 µM (inactive); in test [15] it was > 100 µM (inactive); in test [16] it was > 100 µM (inactive); in [17] it was 32 µM (inactive). Moreover, in test [18], the GI50 is > 100 µM (inactive).

Turning to `C=CCNC(=O)N(CCC)CCCC(NC(C)=O)C(=O)NCc1ccccc1` (configuration not stated), the GI50 in [1], in test [2], in [3], in test [4], in test [5] and in test [6] was > 100 µM (inactive) each time. Besides, the GI50 in test [19], in [7], in test [8], in test [9], in [10] and in test [11] was > 100 µM (inactive) throughout. In addition, the GI50 in [12], in test [13], in test [14], in test [15], in test [16] and in test [17] was > 100 µM (inactive) each time. Also, the GI50 in test [18] was > 100 µM (inactive).

As for `O=c1oc2ccc(-n3c(=O)c4ccccc4c4ccccc4c3=O)cc2c2ccccc12`, the GI50 is > 100 µM (inactive) in [1]; > 100 µM (inactive) in [2]; > 100 µM (inactive) in test [3]; > 100 µM (inactive) in test [4]; 36.5 µM (inactive) in test [5]; > 100 µM (inactive) in test [6]. Moreover, the GI50 in [19], in [7], in test [8], in test [9], in [10] and in [11] was > 100 µM (inactive) each time. Besides, the GI50 is 50 µM (inactive) in [12]; 28.3 µM (inactive) in test [13]; > 100 µM (inactive) in [14]; > 100 µM (inactive) in test [15]; > 100 µM (inactive) in test [16]; > 100 µM (inactive) in [17]. Moreover, the GI50 in test [18] is > 100 µM (inactive).

Turning to `CCOC(=O)Cc1cc(OC)c(OC)cc1/C(Cl)=C(\CO)c1ccc(OC)c(OC)c1`, the GI50 in [1] was 81.1 µM (inactive); in [2], > 100 µM (inactive); in test [3] it was > 100 µM (inactive); in [5], 25.2 µM (inactive); in [19] it was > 100 µM (inactive); in test [7], > 100 µM (inactive). For the same molecule, the GI50 in [8] was 97.7 µM (inactive); in test [9], > 100 µM (inactive); in [10] it was 57.7 µM (inactive); in test [11], 37.5 µM (inactive); in [14], > 100 µM (inactive); in test [15] it was > 100 µM (inactive). The GI50 in test [16] was > 100 µM (inactive); in test [17] it was > 100 µM (inactive); in test [18], 80.5 µM (inactive).

Take `COc1cc(C2c3cc4c(cc3[C@@H](Nc3cccc(CO)c3)C3COC(=O)[C@H]23)OCO4)cc(OC)c1O` (some centres not stated): the GI50 was 0.205 µM (active) in test [2]; 3.31 µM (inactive) in test [3]; 0.156 µM (active) in test [4]; 0.569 µM (active) in test [5]; 1.72 µM (inactive) in test [6]; 0.0448 µM (active) in test [19]. The GI50 in test [7] is 1.56 µM (inactive); in test [8], 0.375 µM (active); in test [9], < 0.01 µM (active); in test [10] it was 1.32 µM (inactive); in test [11], 0.244 µM (active); in test [12], 0.923 µM (active). Moreover, the GI50 in test [13] is 2.74 µM (inactive); in test [14], 1.61 µM (inactive); in test [15], 0.558 µM (active); in [17], 0.173 µM (active); in test [18] it was 0.541 µM (active).

As to `Nc1ncnc2c1ncn2C1C(O)C=C(CO)C1O` (configuration not stated), the GI50 in test [2] is > 625 µM (inactive); in [4] it was > 625 µM (inactive); in test [5], 568 µM (inactive); in test [6], > 625 µM (inactive); in test [7], > 625 µM (inactive); in test [9], > 625 µM (inactive). The GI50 in test [10], in test [11], in test [12], in [13], in [14] and in test [15] was > 625 µM (inactive) throughout. Moreover, the GI50 in test [18] was > 625 µM (inactive).

As for `OC1(c2ccc(Cl)cc2)c2ccc3ccccc3c2C2=N[C@H]3CCCC[C@@H]3N21` (some centres not stated), the GI50 in [1] is 18.3 µM (inactive); in [2], 12.2 µM (inactive); in [3], 3.09 µM (inactive); in [4], 2.54 µM (inactive); in test [5], 16.9 µM (inactive); in test [6] it was 5.16 µM (inactive). Besides, the GI50 in [19] is 8.99 µM (inactive); in test [7], 0.284 µM (active); in test [8], 37 µM (inactive); in [9], 13.3 µM (inactive); in test [10] it was 1.63 µM (inactive); in test [11] it was 7.73 µM (inactive). For the same molecule, the GI50 in [12] was 9.02 µM (inactive); in test [13], 38.5 µM (inactive); in test [14], 14 µM (inactive); in test [15] it was 38.5 µM (inactive); in test [16], 1.52 µM (inactive); in [18], 5.73 µM (inactive).
